Assay results reported in US7803801B2, “Aminopyridine compounds having Syk inhibitory activity” (Japan Tobacco, Inc., priority 2005, dated 2010).
Where two headings read alike, the source gives them in different places.

Assays:
[1] = system: cultured human mast cells; experiment: Degranulation inhibition test using cultured human mast cells (IgE cross-linking, β-Hexosaminidase release); format: cell-based; details: read-out: human degranulation ave. IC50
Outline: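 CD34+ cord-blood cells cultured ≥8 weeks with SCF/IL-6/IL-3; FcεRI primed 5 days with rhIL-4 (1 ng/mL) and hIgE (0.5 μg/mL). Compound (0.1% DMSO) preincubated 10 min at 37 °C, then anti-IgE (final 10 μg/mL) 30 min; released β-hexosaminidase read at 405 nm versus total lysate, IC50 (M).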

[2] = molecular target: GST-Syk Full Protein (human) (Homo sapiens, UniProt P43405); experiment: Syk kinase inhibition test (HTRF method); format: biochemical; details: HTRF, 100 μM ATP, 30 min room temperature, average; read-out: sykHTRF ave IC50
Outline: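 Human GST-Syk full-length (6.4 nM) phosphorylated biotin-EDPDYEWPSA-NH2 (250 nM) with 100 μM ATP in HEPES pH 7.0/MgCl2 buffer, 2% DMSO, 30 min at room temperature. EDTA stop, then HTRF detection (streptavidin-XL665, Eu anti-phosphotyrosine) after 1 h; 665/620 ratio read.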

[3] = Mast cell, cultured human mast cells, anti-hIgE stimulation, β-Hexosaminidase index, average

SMILES | IC50 [1, 3] | IC50 [2] | IC50 [1]
Cc1ccnc(Nc2cccc(-c3cnc([C@H]4CC[C@H](c5noc(=O)[nH]5)CC4)s3)n2)c1 [Compound A-325, 3-(trans-4-{5-[6-(4-methylpyridin-2-ylamino)pyridin-2-yl]thiazol-2-yl}cyclohexyl)-4H-[1,2,4]oxazol-5-one] | 0.1 to 1 µM | < 0.1 µM | 
Cc1ccnc(Nc2cccc(-c3cnc(C4CCC(c5nnn[nH]5)CC4)s3)n2)c1 (stereo not shown) [Compound A-326, N-(4-methylpyridin-2-yl)-N-(6-{2-[4-(1H-tetrazol-5-yl)cyclohexyl]thiazol-5-yl}pyridin-2-yl)amine] | 0.1 to 1 µM | < 0.1 µM | 
CC(=O)N1CCC(Cc2ncc(-c3cccc(Nc4cc(C)ccn4)n3)s2)CC1 [Compound A-328] | 0.1 to 1 µM | 0.1 to 1 µM | 
O=C1CC[C@@H](c2ncc(-c3cccc(Nc4cc(CCO)ccn4)n3)s2)N1 [Compound A-330, (S)-5-(5-{6-[4-(2-hydroxyethyl)pyridin-2-ylamino]pyridin-2-yl}thiazol-2-yl)pyrrolidin-2-one] | 0.1 to 1 µM | < 0.1 µM | 
CC(=O)N[C@@H](C)c1ncc(-c2cccc(Nc3cc(CC(=O)O)ccn3)n2)s1 [Compound A-331] | > 1 µM | > 1 µM | 
CCOC(=O)Cc1ccnc(Nc2cccc(-c3cnc([C@@H]4CCC(=O)N4)s3)n2)c1 [Compound A-332] | 0.1 to 1 µM | 0.1 to 1 µM | 
Cc1ccnc(Nc2cccc(-c3cnc(CC(C)(C)N)s3)n2)c1 [Compound A-333] | 0.1 to 1 µM | 0.1 to 1 µM | 
CC(=O)NC(C)(C)Cc1ncc(-c2cccc(Nc3cc(C)ccn3)n2)s1 [Compound A-334, N-(1,1-dimethyl-2-{5-[6-(4-methylpyridin-2-ylamino)pyridin-2-yl]thiazol-2-yl}ethyl)acetamide] | < 0.1 µM | < 0.1 µM | 
C[C@H](O)c1ncc(-c2cccc(Nc3cc(C4(C)OCCO4)ccn3)n2)s1 [Compound A-335, (S)-1-(5-{6-[4-(2-methyl-[1,3]dioxolan-2-yl)pyridin-2-ylamino]pyridin-2-yl}thiazol-2-yl)ethanol] | 0.1 to 1 µM | < 0.1 µM | 
CNC(=O)[C@H]1CC[C@H](c2ncc(-c3cccc(Nc4cc(C)ccn4)n3)s2)CC1 [Compound A-336, N-methyl-trans-4-{5-[6-(4-methylpyridin-2-ylamino)pyridin-2-yl]thiazol-2-yl}cyclohexanecarboxamide] | 0.1 to 1 µM | < 0.1 µM | 
Cc1ccnc(Nc2cccc(-c3cnc(CC(C)(C)NS(C)(=O)=O)s3)n2)c1 [Compound A-337, N-(1,1-dimethyl-2-{5-[6-(4-methylpyridin-2-ylamino)pyridin-2-yl]-thiazol-2-yl}ethyl)methanesulfonamide] | < 0.1 µM | < 0.1 µM | 
NC(=O)[C@H]1CC[C@H](c2ncc(-c3cccc(Nc4cc(Cl)ccn4)n3)s2)CC1 [Compound A-338, trans-4-{5-[6-(4-chloropyridin-2-ylamino)pyridin-2-yl]thiazol-2-yl}cyclohexanecarboxamide] | < 0.1 µM | < 0.1 µM | 
COc1ccnc(Nc2cccc(-c3cnc([C@H]4CC[C@H](C(N)=O)CC4)s3)n2)c1 [Compound A-339, trans-4-{5-[6-(4-methoxypyridin-2-ylamino)pyridin-2-yl]thiazol-2-yl}cyclohexanecarboxamide] | < 0.1 µM | < 0.1 µM | 
O=C(O)Cc1ccnc(Nc2cccc(-c3cnc([C@@H]4CCC(=O)N4)s3)n2)c1 [Compound A-340] | 0.1 to 1 µM | 0.1 to 1 µM | 
Cc1ccnc(Nc2cccc(-c3cnc(CC4CCC(O)CC4)s3)n2)c1 (stereo not shown) [Compound A-341, 4-{5-[6-(4-methylpyridin-2-ylamino)pyridin-2-yl]thiazol-2-ylmethyl}cyclohexanol] | 0.1 to 1 µM | < 0.1 µM | 
CNC(=O)Cc1ccnc(Nc2cccc(-c3cnc([C@@H]4CCC(=O)N4)s3)n2)c1 [Compound A-342] | > 1 µM | > 1 µM | 
O=C1CC[C@@H](c2ncc(-c3cccc(Nc4cc(OCCO)ccn4)n3)s2)N1 [Compound A-343] | 0.1 to 1 µM | 0.1 to 1 µM | 
C[C@H](O)c1ncc(-c2cccc(Nc3cc(OCCO)ccn3)n2)s1 [Compound A-344, (S)-1-(5-{6-[4-(2-hydroxyethoxy)pyridin-2-ylamino]pyridin-2-yl}thiazol-2-yl)ethanol] | < 0.1 µM | < 0.1 µM | 
Cc1ccnc(Nc2cccc(-c3cnc([C@H](C)OC(=O)N(C)C)s3)n2)c1 [Compound A-345, dimethylcarbamic acid(S)-1-{5-[6-(4-methylpyridin-2-ylamino)pyridin-2-yl]thiazol-2-yl}ethyl ester] | 0.1 to 1 µM | < 0.1 µM | 
Cc1ccnc(Nc2cccc(-c3cnc(COC(=O)N4CCOCC4)s3)n2)c1 [Compound A-346] | 0.1 to 1 µM | 0.1 to 1 µM | 
Cc1ccnc(Nc2cccc(-c3cnc([C@H](C)NC(=O)c4ccc(O)cc4)s3)n2)c1 [Compound A-347] | 0.1 to 1 µM | 0.1 to 1 µM | 
Cc1ccnc(Nc2cccc(-c3cnc([C@H](C)NC(=O)c4ccccc4)s3)n2)c1 [Compound A-348] | > 1 µM | 0.1 to 1 µM | 
Cc1ccnc(Nc2cccc(-c3cnc([C@H](C)NC(=O)C4CCC(O)CC4)s3)n2)c1 (stereo partly shown) [Compound A-349] | > 1 µM | 0.1 to 1 µM | 
Cc1ccnc(Nc2cccc(-c3cnc(CN4C(=O)CCCC4=O)s3)n2)c1 [Compound A-350] | 0.1 to 1 µM | 0.1 to 1 µM | 

SMILES | IC50 [1, 3] | IC50 [2] | IC50 [1]
Cc1ccnc(Nc2cccc(-c3cnc(CN4CCNC(=O)C4)s3)n2)c1 [Compound A-351, potassium carbonate 4-{5-[6-(4-methylpyridin-2-ylamino)pyridin-2-yl]thiazol-2-ylmethyl}piperazin-2-one] |  | < 0.1 µM | 0.1 to 1 µM
Cc1ccnc(Nc2cccc(-c3cnc([C@H](C)NC(=O)Cc4ccc(O)cc4)s3)n2)c1 [Compound A-352] | 0.1 to 1 µM | 0.1 to 1 µM | 
Cc1ccnc(Nc2cccc(-c3cnc(C4CCN(S(C)(=O)=O)CC4)s3)n2)c1 [Compound A-353] | 0.1 to 1 µM | 0.1 to 1 µM | 
Cc1ccnc(Nc2cccc(-c3cnc(COCC(N)=O)s3)n2)c1 [Compound A-354] | 0.1 to 1 µM | 0.1 to 1 µM | 
CC(=O)NCC(=O)N[C@@H](C)c1ncc(-c2cccc(Nc3cc(C)ccn3)n2)s1 [Compound A-355] | > 1 µM | 0.1 to 1 µM | 
COC(=O)N(C)Cc1ncc(-c2cccc(Nc3cc(C)ccn3)n2)s1 [Compound A-356] | 0.1 to 1 µM | 0.1 to 1 µM | 
Cc1ccnc(Nc2cccc(-c3cnc(CN(C)C(=O)N(C)C)s3)n2)c1 [Compound A-357] | > 1 µM | 0.1 to 1 µM | 
Cc1ccnc(Nc2cccc(-c3cnc(CN(C)C(=O)C4CC4)s3)n2)c1 [Compound A-358] | 0.1 to 1 µM | 0.1 to 1 µM | 
CNC(=O)N1CCC(c2ncc(-c3cccc(Nc4cc(C)ccn4)n3)s2)CC1 [Compound A-359] | 0.1 to 1 µM | 0.1 to 1 µM | 
CC(=O)Oc1ccc(CC(OC(C)=O)c2ncc(-c3cccc(Nc4cc(C)ccn4)n3)s2)cc1 (stereo not shown) [Compound A-360] | > 1 µM | > 1 µM | 
COC(=O)COCc1ncc(-c2cccc(Nc3cc(C)ccn3)n2)s1 [Compound A-361] | 0.1 to 1 µM | 0.1 to 1 µM | 
Cc1ccnc(Nc2cccc(-c3cnc(C(O)Cc4ccc(O)cc4)s3)n2)c1 (stereo not shown) [Compound A-362, 4-(2-hydroxy-2-{5-[6-(4-methylpyridin-2-ylamino)pyridin-2-yl]thiazol-2-yl}ethyl)phenol] | 0.1 to 1 µM | < 0.1 µM | 
Cc1ccnc(Nc2cccc(-c3cnc([C@@H]4CCCC(=O)N4)s3)n2)c1 [Compound A-363] | 0.1 to 1 µM | 0.1 to 1 µM | 
Cc1ccnc(Nc2cccc(-c3cnc([C@@H]4CCCC(=O)N4C)s3)n2)c1 [Compound A-364] | 0.1 to 1 µM | 0.1 to 1 µM | 
Cc1ccnc(Nc2cccc(-c3cnc([C@@H]4COC(C)(C)O4)s3)n2)c1 [Compound A-365] | 0.1 to 1 µM | 0.1 to 1 µM | 
CC(=O)OC(Cc1ccc(O)cc1)c1ncc(-c2cccc(Nc3cc(C)ccn3)n2)s1 (stereo not shown) [Compound A-366] | 0.1 to 1 µM | 0.1 to 1 µM | 
CNC(=O)COCc1ncc(-c2cccc(Nc3cc(C)ccn3)n2)s1 [Compound A-367] | 0.1 to 1 µM | 0.1 to 1 µM | 
Cc1ccnc(Nc2cccc(-c3cnc(COCC(=O)N(C)C)s3)n2)c1 [Compound A-368] | 0.1 to 1 µM | 0.1 to 1 µM | 
Cc1ccnc(Nc2cccc(-c3cnc(COCC(=O)N4CCC(O)CC4)s3)n2)c1 [Compound A-369] | > 1 µM | 0.1 to 1 µM | 
Cc1ccnc(Nc2cccc(-c3cnc(COCC(=O)N4CCNC(=O)C4)s3)n2)c1 [Compound A-370, 4-(2-{5-[6-(4-methylpyridin-2-ylamino)pyridin-2-yl]thiazol-2-ylmethoxy}acetyl)piperazin-2-one] | 0.1 to 1 µM | < 0.1 µM | 
Cc1ccnc(Nc2cccc(-c3cnc(C4CCN(C(=O)N(C)C)CC4)s3)n2)c1 [Compound A-371] | 0.1 to 1 µM | 0.1 to 1 µM | 
CC(=O)N(C)[C@H](c1ccc(O)cc1)c1ncc(-c2cccc(Nc3cc(C)ccn3)n2)s1 [Compound A-372, N—((R)-(4-hydroxyphenyl)-{5-[6-(4-methylpyridin-2-ylamino)pyridin-2-yl]thiazol-2-yl}methyl)-N-methylacetamide] | 0.1 to 1 µM | < 0.1 µM | 
Cc1ccnc(Nc2cccc(-c3cnc([C@@H]4CCC(=O)N4C)s3)n2)c1 [Compound A-373] | 0.1 to 1 µM | 0.1 to 1 µM | 
